Values of other authors, collected in patent publication US11446274B2, “Use of dianhydrogalactitol or derivatives or analogs thereof for treatment of pediatric central nervous system malignancies” (DelMar Pharmaceuticals, Inc., priority 2015, dated 2022).
Read-outs that look alike come from different tables or passages of the source.

Tests used:
[1] = test system: cells that are either MGMT-positive or MGMT-negative or MMR-proficient or MMR-deficient; details: cited from earlier work
[2] = molecular target: glycogen synthase kinase-3β (GSK-3β) (Homo sapiens, UniProt P49841); details: cited from earlier work
Sequence of glycogen synthase kinase-3β (GSK-3β) (P49841 whole entry, species assumed): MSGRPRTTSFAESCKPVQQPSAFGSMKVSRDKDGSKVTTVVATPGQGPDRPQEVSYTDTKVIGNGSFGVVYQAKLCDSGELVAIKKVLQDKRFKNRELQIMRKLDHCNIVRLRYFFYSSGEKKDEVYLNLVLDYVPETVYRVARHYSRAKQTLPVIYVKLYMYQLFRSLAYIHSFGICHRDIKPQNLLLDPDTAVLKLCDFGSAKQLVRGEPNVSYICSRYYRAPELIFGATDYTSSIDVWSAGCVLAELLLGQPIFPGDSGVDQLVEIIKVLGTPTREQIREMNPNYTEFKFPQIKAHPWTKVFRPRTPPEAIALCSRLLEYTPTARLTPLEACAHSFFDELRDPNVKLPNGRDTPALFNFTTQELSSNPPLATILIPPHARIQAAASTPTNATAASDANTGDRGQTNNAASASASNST

Row | Structure (SMILES) | sensitivity ([1]; MGMT Negative, MMR-Deficient) | sensitivity ([1]; MGMT Negative, MMR-Proficient) | sensitivity ([1]; MGMT Positive, MMR-Deficient) | sensitivity ([1]; MGMT Positive, MMR-Proficient) | concentration for inhibition of GSK-3β [2]
1 | N.N.[Cl][Pt][Cl] [cisplatin] | Resistant | Sensitive | Resistant | Sensitive | 
2 | CN1C(=O)/C(=C2/C(=O)Nc3ccccc32)c2ccccc21 [Meisoindigo, meisoindigo] |  |  |  |  | 5 to 50 nM
